How the values were obtained:
EGFR (L858R/T790M/C797S) = EGFR (L858R/T790M/C797S) (Homo sapiens, UniProt P00533, C797S/L858R/T790M); experiment: HotSpot radiometric kinase assay, inhibition of EGFR L858R/T790M/C797S mutant; format: biochemical; details: 33P ATP, room temperature, 120 m
In short: (§1)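 Radiometric filter-binding format: ATP plus 33P-ATP ([…]) was added about 20 min after compound to kinase and substrate in HEPES pH 7.5 buffer with Mg2+, EGTA, Brij35, BSA, vanadate, DTT and 1% DMSO. After 120 min at room temperature, reactions were spotted on P81 paper and washed in phosphoric acid; IC50 values fitted.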

EGFR (D746-750) = EGFR (D746-750) (Homo sapiens, UniProt P00533, DEL746-750); experiment: HotSpot radiometric kinase assay, inhibition of EGFR 746-750 mutant; format: biochemical; details: 33P ATP, room temperature, 120 m
Sequence of EGFR (D746-750) (P00533 with tags, fused parts or gaps DEL746-750): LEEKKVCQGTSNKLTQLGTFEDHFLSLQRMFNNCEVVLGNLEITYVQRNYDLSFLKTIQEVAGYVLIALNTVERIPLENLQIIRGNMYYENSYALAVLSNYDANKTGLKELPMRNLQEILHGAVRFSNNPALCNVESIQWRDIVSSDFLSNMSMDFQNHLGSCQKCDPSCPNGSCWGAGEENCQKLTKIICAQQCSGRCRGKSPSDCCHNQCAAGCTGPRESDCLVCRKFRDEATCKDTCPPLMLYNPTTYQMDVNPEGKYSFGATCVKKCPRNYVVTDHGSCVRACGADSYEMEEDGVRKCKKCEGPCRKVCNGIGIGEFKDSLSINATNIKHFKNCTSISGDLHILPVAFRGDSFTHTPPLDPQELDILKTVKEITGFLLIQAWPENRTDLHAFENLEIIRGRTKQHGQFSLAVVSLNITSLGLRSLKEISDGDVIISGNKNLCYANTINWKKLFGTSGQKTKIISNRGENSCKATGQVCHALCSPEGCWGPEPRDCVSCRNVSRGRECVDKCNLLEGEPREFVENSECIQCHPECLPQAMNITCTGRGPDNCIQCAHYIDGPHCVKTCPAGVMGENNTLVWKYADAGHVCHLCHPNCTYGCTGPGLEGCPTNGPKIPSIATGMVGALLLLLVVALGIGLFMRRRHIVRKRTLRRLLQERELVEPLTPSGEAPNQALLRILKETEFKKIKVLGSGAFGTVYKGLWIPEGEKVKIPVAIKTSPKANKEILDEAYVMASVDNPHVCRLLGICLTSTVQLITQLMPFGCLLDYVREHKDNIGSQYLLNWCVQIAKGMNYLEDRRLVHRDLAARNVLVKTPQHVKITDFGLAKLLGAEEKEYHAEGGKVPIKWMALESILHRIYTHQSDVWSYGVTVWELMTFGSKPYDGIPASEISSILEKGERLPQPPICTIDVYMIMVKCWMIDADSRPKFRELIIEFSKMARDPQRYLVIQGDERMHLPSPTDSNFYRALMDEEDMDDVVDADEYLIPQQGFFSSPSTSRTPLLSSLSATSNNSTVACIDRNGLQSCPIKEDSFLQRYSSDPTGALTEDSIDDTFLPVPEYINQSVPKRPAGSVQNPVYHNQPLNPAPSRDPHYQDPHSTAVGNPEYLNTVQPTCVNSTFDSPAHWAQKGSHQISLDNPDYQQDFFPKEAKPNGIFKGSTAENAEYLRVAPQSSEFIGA
In short: as §1

EGFR (D746-750/C797S) = EGFR (D746-750/C797S) (Homo sapiens, UniProt P00533, C797S/DEL746-750); experiment: HotSpot radiometric kinase assay, inhibition of EGFR 746-750/C797S mutant; format: biochemical; details: 33P ATP, room temperature, 120 m
Sequence of EGFR (D746-750/C797S) (P00533 with tags, fused parts or gaps DEL746-750/C797S): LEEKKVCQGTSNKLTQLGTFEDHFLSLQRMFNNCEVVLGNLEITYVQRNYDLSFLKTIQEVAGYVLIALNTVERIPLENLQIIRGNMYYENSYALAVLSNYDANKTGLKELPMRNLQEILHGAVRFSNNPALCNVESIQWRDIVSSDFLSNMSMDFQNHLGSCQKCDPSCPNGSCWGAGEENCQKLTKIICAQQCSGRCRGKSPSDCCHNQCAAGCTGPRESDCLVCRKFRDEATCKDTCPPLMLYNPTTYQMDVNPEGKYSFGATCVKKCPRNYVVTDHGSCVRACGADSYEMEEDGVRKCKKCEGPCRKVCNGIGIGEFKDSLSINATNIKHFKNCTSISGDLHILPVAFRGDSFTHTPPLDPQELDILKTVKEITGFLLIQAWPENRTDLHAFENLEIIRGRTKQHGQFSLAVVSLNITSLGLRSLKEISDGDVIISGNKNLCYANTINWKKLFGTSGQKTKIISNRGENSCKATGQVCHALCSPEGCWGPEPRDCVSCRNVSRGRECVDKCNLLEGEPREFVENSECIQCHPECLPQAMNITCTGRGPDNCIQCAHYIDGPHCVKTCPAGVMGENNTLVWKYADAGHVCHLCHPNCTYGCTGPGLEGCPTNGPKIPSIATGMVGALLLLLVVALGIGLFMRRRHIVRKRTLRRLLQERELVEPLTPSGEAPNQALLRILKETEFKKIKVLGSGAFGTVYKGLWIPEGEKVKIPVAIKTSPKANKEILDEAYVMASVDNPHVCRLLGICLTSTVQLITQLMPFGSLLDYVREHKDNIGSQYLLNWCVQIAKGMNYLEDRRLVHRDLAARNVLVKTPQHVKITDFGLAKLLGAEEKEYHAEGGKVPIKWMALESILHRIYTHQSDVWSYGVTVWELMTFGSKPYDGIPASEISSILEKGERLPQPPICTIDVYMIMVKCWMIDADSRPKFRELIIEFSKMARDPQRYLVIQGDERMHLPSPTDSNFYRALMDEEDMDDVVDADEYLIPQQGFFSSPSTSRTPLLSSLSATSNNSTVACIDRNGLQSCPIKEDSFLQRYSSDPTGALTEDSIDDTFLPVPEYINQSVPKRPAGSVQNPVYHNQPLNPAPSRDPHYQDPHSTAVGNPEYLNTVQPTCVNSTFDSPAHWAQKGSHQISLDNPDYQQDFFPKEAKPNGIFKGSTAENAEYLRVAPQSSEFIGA
In short: as §1

EGFR (D770_N771insNPG) = EGFR (D770_N771insNPG) (Homo sapiens, UniProt P00533, INS770NPG); experiment: HotSpot radiometric kinase assay, inhibition of EGFR (D770_N771insNPG) mutant; format: biochemical; details: 33P ATP, room temperature, 120 m
In short: as §1

[1] = molecular target: T1, pEGFR, PC-9 cells (d746-750 EGFR) (Homo sapiens, UniProt P00533, DEL746-750); experiment: Cellular EGFR phosphorylation assay (LANCE Ultra TR-FRET) in PC-9 cells; format: cell-based; details: 4 hours at 37° C., read-out: PC-9 pEGFR IC50
T1 construct: pEGFR (Tyr1068) TR-FRET
T1 sequence (P00533 with tags, fused parts or gaps DEL746-750): as the sequence (P00533 with tags, fused parts or gaps DEL746-750) above
In short: (§2)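 pEGFR Tyr1068 TR-FRET readout, lysates after 4 h compound exposure (37 °C, 5% CO2); 9-dose 3-fold series. A431 only: EGF 40 ng/mL for last 10 min. IC50 from curve fit.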

[2] = molecular target: T2, pEGFR, NCI-H1975 cells (L858R/T790M EGFR) (Homo sapiens, UniProt P00533, L858R/T790M); experiment: Cellular EGFR phosphorylation assay (LANCE Ultra TR-FRET) in NCI-H1975 cells; format: cell-based; details: 4 hours at 37° C., read-out: H1975 pEGFR IC50
T2 construct: pEGFR (Tyr1068) TR-FRET
In short: as §2

[3] = molecular target: T3, pEGFR, A431 cells (wildtype EGFR) (Homo sapiens, UniProt P00533); experiment: Cellular EGFR phosphorylation assay (LANCE Ultra TR-FRET) in A431 cells; format: cell-based; details: 4 hours at 37° C., 40 ng/mL EGF for the final 10 minutes, read-out: A431 pEGFR IC50
T3 construct: pEGFR (Tyr1068) TR-FRET
In short: as §2

PC-9 cells = experiment: 5-Day CellTiter Glo (CTG) cell proliferation assay, PC-9; format: cell-based; details: Homo sapiens; PC-9 cells (d746-750 EGFR), 5-day CTG proliferation, 120 hours; read-out: PC-9 IC50
In short: (§3)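 Proliferation of EGFR-driven NSCLC cells was scored as CellTiter-Glo 2.0 luminescence after a 5-day (120 h) incubation with compounds in 9 doses. IC50 values came from the dose-response curves.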

NCI-H1975 cells = experiment: 5-Day CellTiter Glo (CTG) cell proliferation assay, NCI-H1975; format: cell-based; details: Homo sapiens; NCI-H1975 cells (L858R/T790M EGFR), 5-day CTG proliferation, 120 hours; read-out: H1975 IC50
In short: as §3

HCC827 cells = experiment: 5-Day CellTiter Glo (CTG) cell proliferation assay, HCC827; format: cell-based; details: Homo sapiens; HCC827 cells (d746-750 EGFR), 5-day CTG proliferation, 120 hours; read-out: HCC827 IC50
In short: as §3

[4] = tested on: BaF3 cells with engineered EGFR L858R/T790M/C797S; experiment: 3-Day CellTiter Glo (CTG) cell proliferation assay, BaF3 EGFR L858R/T790M/C797S; format: cell-based; details: Mus musculus, 3-day CTG proliferation, 72 hours
In short: (§4)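 Viability after 72 h compound exposure (9 concentrations, 37° C, 5% CO2) was measured as ATP luminescence with CellTiter-Glo 2.0 in EGFR-mutant-engineered BaF3 cells plated at one thousand cells per well. IC50 values obtained by curve fitting.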

[5] = tested on: BaF3 cells with engineered EGFR L858R/C797S; experiment: 3-Day CellTiter Glo (CTG) cell proliferation assay, BaF3 EGFR L858R/C797S; format: cell-based; details: Mus musculus, 3-day CTG proliferation, 72 hours
In short: as §4

[6] = tested on: BaF3 cells with engineered EGFR d746-750/T790M; experiment: 3-Day CellTiter Glo (CTG) cell proliferation assay, BaF3 EGFR d746-750/T790M; format: cell-based; details: Mus musculus; BaF3 EGFR d746-750/T790M cells, 3-day CTG proliferation, 72 hours
Procedure: 3-DAY CellTiter Glo (CTG) Cell Proliferation Assays (BaF3 Cell Lines)
Cell proliferation assays were carried out in BaF3 cells engineered with EGFR mutations. BaF3 cells with engineered EGFR L858R/T790M/C797S, EGFR L858R/C797S, or EGFR d746-750/T790M transgene, one thousand cells/50 μL per well were seeded in white 384-well plate, followed by treatment with indicated compounds in a 9-dose dilution series using TECAN d300e liquid dispenser. Cells were incubated with compounds for 72 hours at 37° C. and 5% CO2. Cell proliferation was measured using CellTiter-Gbo 2.0 luciferase-based ATP detection assay (Promega, Madison, WI) at 18 μL per well following the manufacturer's protocol. Plates were then read on a TECAN Sparks multimode microplate reader. Data was analyzed using GraphPad Prism 9 (GraphiPad Software, San Diego, CA) to obtain IC50 values.

Sequence of EGFR (L858R/T790M/C797S) (P00533 25-1210 T790M/C797S/L858R): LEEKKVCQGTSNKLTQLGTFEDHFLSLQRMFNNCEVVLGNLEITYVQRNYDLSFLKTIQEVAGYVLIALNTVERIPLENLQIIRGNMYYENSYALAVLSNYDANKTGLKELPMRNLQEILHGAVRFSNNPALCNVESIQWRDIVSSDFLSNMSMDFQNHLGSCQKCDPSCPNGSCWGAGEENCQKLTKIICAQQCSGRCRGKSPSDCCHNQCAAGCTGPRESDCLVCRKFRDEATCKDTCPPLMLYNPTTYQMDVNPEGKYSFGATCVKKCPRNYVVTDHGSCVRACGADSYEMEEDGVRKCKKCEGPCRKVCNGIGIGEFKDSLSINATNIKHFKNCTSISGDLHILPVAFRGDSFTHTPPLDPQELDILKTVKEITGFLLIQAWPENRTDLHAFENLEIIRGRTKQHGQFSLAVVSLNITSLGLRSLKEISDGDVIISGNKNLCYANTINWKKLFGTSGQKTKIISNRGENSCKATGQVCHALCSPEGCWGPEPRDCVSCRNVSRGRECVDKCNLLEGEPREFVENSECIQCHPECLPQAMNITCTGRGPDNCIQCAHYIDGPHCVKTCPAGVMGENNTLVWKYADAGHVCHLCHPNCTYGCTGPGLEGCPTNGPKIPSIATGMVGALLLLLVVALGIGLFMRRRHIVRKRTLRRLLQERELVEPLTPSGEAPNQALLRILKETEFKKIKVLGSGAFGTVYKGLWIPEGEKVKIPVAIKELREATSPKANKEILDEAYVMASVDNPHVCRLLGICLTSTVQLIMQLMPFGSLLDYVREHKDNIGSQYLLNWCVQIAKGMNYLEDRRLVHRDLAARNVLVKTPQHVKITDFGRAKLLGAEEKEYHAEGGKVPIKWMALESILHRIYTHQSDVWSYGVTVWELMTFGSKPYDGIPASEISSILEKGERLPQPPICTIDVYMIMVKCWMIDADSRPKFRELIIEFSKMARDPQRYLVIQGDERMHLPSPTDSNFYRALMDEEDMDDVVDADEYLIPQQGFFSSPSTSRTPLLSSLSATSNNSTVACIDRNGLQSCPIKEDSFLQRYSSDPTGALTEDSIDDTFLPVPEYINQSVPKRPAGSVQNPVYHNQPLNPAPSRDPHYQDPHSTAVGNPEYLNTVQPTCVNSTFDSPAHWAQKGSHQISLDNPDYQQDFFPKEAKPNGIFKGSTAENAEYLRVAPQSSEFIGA

| SMILES | IC50 (EGFR (L858R/T790M/C797S)) [nM] | IC50 (EGFR (D746-750)) [nM] | IC50 (EGFR (D746-750/C797S)) [nM] | IC50 (EGFR (D770_N771insNPG)) [nM] | IC50 [1] [nM] | IC50 [2] [nM] | IC50 [3] [nM] | IC50 (PC-9 cells) [nM] | IC50 (NCI-H1975 cells) [nM] | IC50 (HCC827 cells) [nM] | IC50 [4] [nM] | IC50 [5] [nM] | IC50 [6] [nM] |
| --- | --- | --- | --- | --- | --- | --- | --- | --- | --- | --- | --- | --- | --- |
| Cc1nn(CCO)c2c1/C=C/c1n[nH]c3cnc(cc13)-c1c(C)nn(C)c1O[C@@H](C)CN(C)C2 [Ex. 41, 2-[(10S,17E)-6,8,10,12,16-pentamethyl-2,8,10,11,12,13-hexahydro-14H-5,3-(azenometheno)tripyrazolo[3,4-f:3′,4′-j:4″,3″-n][1,4]oxazacyclopentadecin-14-yl]ethan-1-ol] | 0.23 | 0.08 | 0.23 | 0.08 | – | – | – | – | – | – | 3.74 | 0.16 | 13.8 |
| Cc1nc2cc3c(n[nH]c13)/C=C/c1c(OC(C)C)nn(CCO)c1CN(C)C[C@H](C)Oc1c-2cnn1C [Ex. 40, 2-[(10S,17E)-8,10,12,20-tetramethyl-16-[(propan-2-yl)oxy]-2,8,10,11,12,13-hexahydro-14H-5,3-(azenometheno)tripyrazolo[3,4-f:3′,4′-j:4″,3″-n][1,4]oxazacyclopentadecin-14-yl]ethan-1-ol] | 0.45 | 0.35 | 0.97 | 1.63 | 11.4 | 1.6 | 14.7 | – | – | – | 0.92 | 0.28 | 3.34 |
| CCNc1nn([C@@H](C)CO)c2c1/C=C/c1n[nH]c3cnc(cc13)-c1c(C)nn(C)c1O[C@@H](C)CN(C)C2 [Ex. 93, (2S)-2-[(10S,17E)-16-(ethylamino)-6,8,10,12-tetramethyl-2,8,10,11,12,13-hexahydro-14H-5,3-(azenometheno)tripyrazolo[3,4-f:3′,4′-j:4″,3″-n][1,4]oxazacyclopentadecin-14-yl]propan-1-ol] | – | – | – | – | 2.05 | 3.54 | 19.6 | 1.98 | 2 | 0.51 | 1.65 | 0.13 | 1.8 |
| CCOc1nn([C@@H](C)CO)c2c1/C=C/c1n[nH]c3cnc(cc13)-c1c(C)nn(C)c1OC[C@@H](C)N(C)C2 [Ex. 97, (2S)-2-[(11R,17E)-16-ethoxy-6,8,11,12-tetramethyl-2,8,10,11,12,13-hexahydro-14H-5,3-(azenometheno)tripyrazolo[3,4-f:3′,4′-j:4″,3″-n][1,4]oxazacyclopentadecin-14-yl]propan-1-ol] | – | – | – | – | 1.08 | 1.62 | 11 | 1.39 | 1.77 | 0.2 | 0.43 | 0.04 | 0.4 |
| CCOc1nn([C@@H](C)CO)c2c1/C=C/c1n[nH]c3cnc(cc13)-c1c(C)nn(C)c1OC[C@@H](C)N(C1CC1)C2 [Ex. 111, (2S)-2-[(11R,17E)-12-cyclopropyl-16-ethoxy-6,8,11-trimethyl-2,8,10,11,12,13-hexahydro-14H-5,3-(azenometheno)tripyrazolo[3,4-f:3′,4′-j:4″,3″-n][1,4]oxazacyclopentadecin-14-yl]propan-1-ol] | – | – | – | – | 1.06 | 2.08 | 1.46 | 1.52 | 3.12 | 0.43 | 1.11 | 0.11 | 0.78 |

Next, values leading:

| IC50 (EGFR (L858R/T790M/C797S)) [nM] | IC50 (EGFR (D746-750)) [nM] | IC50 (EGFR (D746-750/C797S)) [nM] | IC50 (EGFR (D770_N771insNPG)) [nM] | IC50 [1] [nM] | IC50 [2] [nM] | IC50 [3] [nM] | IC50 (PC-9 cells) [nM] | IC50 (NCI-H1975 cells) [nM] | IC50 (HCC827 cells) [nM] | IC50 [4] [nM] | IC50 [5] [nM] | IC50 [6] [nM] | SMILES |
| --- | --- | --- | --- | --- | --- | --- | --- | --- | --- | --- | --- | --- | --- |
| 0.79 | 0.22 | 0.63 | 0.71 | 1.35 | 1.34 | 9.27 | 1.81 | 8.82 | 0.39 | 0.9 | 0.13 | 0.71 | CCOc1nn(CCO)c2c1/C=C/c1n[nH]c3cnc(cc13)-c1c(C)nn(C)c1OC[C@H](C)N(C(C)C)C2 [Ex. 2, 2-[(11S,17E)-16-ethoxy-6,8,11-trimethyl-12-(propan-2-yl)-2,8,10,11,12,13-hexahydro-14H-5,3-(azenometheno)tripyrazolo[3,4-f:3′,4′-j:4″,3″-n][1,4]oxazacyclopentadecin-14-yl]ethan-1-ol] |
| 0.19 | 0.15 | 0.49 | 0.15 | 3.64 | 3.31 | 14 | 4.44 | 1.96 | 0.5 | 1.02 | 0.14 | 0.65 | CCOc1nn(CCO)c2c1/C=C/c1n[nH]c3cnc(cc13)-c1cnn(C)c1O[C@@H](C)CN(C1CC1)C2 [Ex. 30, 2-[(10S,17E)-12-cyclopropyl-16-ethoxy-8,10-dimethyl-2,8,10,11,12,13-hexahydro-14H-5,3-(azenometheno)tripyrazolo[3,4-f:3,4′-j:4″,3″-n][1,4]oxazacyclopentadecin-14-yl]ethan-1-ol] |
| 0.13 | 0.1 | 0.29 | 0.14 | – | – | – | – | – | – | 1.97 | 0.47 | 2.13 | CCN1Cc2c(c(OCC#N)nn2CCO)/C=C/c2n[nH]c3cnc(cc23)-c2c(C)nn(C)c2O[C@H](C)C1 [Ex. 36, {[(10R,17E)-12-ethyl-14-(2-hydroxyethyl)-6,8,10-trimethyl-2,10,11,12,13,14-hexahydro-8H-5,3-(azenometheno)tripyrazolo[3,4-f:3′,4′-j:4″,3″-n][1,4]oxazacyclopentadecin-16-yl]oxy}acetonitrile] |
| – | – | – | – | 1.09 | 1.57 | 7.67 | 0.68 | 1.11 | 0.3 | 0.54 | 0.04 | 0.69 | CCOc1nn(C[C@H](C)O)c2c1/C=C/c1n[nH]c3cnc(cc13)-c1c(C)nn(C)c1O[C@@H](C)CN(C)C2 [Ex. 86, (2S)-1-[(10S,17E)-16-ethoxy-6,8,10,12-tetramethyl-2,8,10,11,12,13-hexahydro-14H-5,3-(azenometheno)tripyrazolo[3,4-f:3′,4′-j:4″,3″-n][1,4]oxazacyclopentadecin-14-yl]propan-2-ol] |
| – | – | – | – | 1.98 | 1.58 | 11.1 | 0.68 | 1.4 | 0.45 | 0.91 | 0.11 | 1.18 | CCOc1nn(CCO)c2c1/C=C/c1n[nH]c3cnc(cc13)-c1c(C)nn(C)c1O[C@@H](C)CN(C1CC1)C2 [Ex. 113, 2-[(10S,17E)-12-cyclopropyl-16-ethoxy-6,8,10-trimethyl-2,8,10,11,12,13-hexahydro-14H-5,3-(azenometheno)tripyrazolo[3,4-f:3′,4′-j:4″,3″-n][1,4]oxazacyclopentadecin-14-yl]ethan-1-ol] |

Source: US20260317344A1, “EGFR INHIBITORS FOR TREATING DISEASE” (BLOSSOMHILL THERAPEUTICS, INC., priority 2023, published 2026)
